Source: ChEMBL document CHEMBL1201862, “PubChem BioAssay data set” (2004)
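Tested at 5 concentrations; 48 h exposure; 96-well plates; endpoints linearly interpolated, else capped at highest concentration. GI50 = concentration required for 50% inhibition of growth.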 Activity calls are given as the source filed them. Rule as the data show it: active = GI50 up to about 1.1 µM and inactive = higher.

What was measured:
Assay in all cases: DTP human tumour cell line panel, 48 h
SNB-75 = test system: SNB-75
KM12 = test system: KM12
SF-539 = test system: SF-539
TK-10 = test system: TK-10
HCT-116 = test system: HCT-116
U-251 = test system: U-251
NCI/ADR-RES = test system: NCI/ADR-RES
OVCAR-5 = test system: OVCAR-5
HL-60 = test system: HL-60
MDA-MB-231 = test system: MDA-MB-231
HOP-62 = test system: HOP-62
M14 = test system: M14
DU-145 = test system: DU-145
OVCAR-3 = test system: OVCAR-3
T47D = test system: T47D
HT-29 = test system: HT-29
Hs-578T = test system: Hs-578T
SN12C = test system: SN12C
MOLT-4 = test system: MOLT-4
HCT-15 = test system: HCT-15
NCI-H23 = test system: NCI-H23
IGROV-1 = test system: IGROV-1
SF-268 = test system: SF-268
A498 = test system: A498
SK-MEL-2 = test system: SK-MEL-2
LOX IMVI = test system: LOX IMVI
RPMI-8226 = test system: RPMI-8226
HCC 2998 = test system: HCC 2998
A549 = test system: A549
MCF7 = test system: MCF7
786-0 = test system: 786-0
SF-295 = test system: SF-295
UACC-257 = test system: UACC-257
SK-OV-3 = test system: SK-OV-3
ACHN = test system: ACHN
PC-3 = test system: PC-3
SW-620 = test system: SW-620
NCI-H460 = test system: NCI-H460
CAKI-1 = test system: CAKI-1
SNB-19 = test system: SNB-19
COLO 205 = test system: COLO 205
UACC-62 = test system: UACC-62
Malme-3M = test system: Malme-3M
RXF 393 = test system: RXF 393
OVCAR-4 = test system: OVCAR-4
NCI-H226 = test system: NCI-H226
MDA-N = test system: MDA-N
K562 = test system: K562
SR = test system: SR
EKVX = test system: EKVX
UO-31 = test system: UO-31
CCRF-CEM = test system: CCRF-CEM
SK-MEL-28 = test system: SK-MEL-28
MDA-MB-435 = test system: MDA-MB-435
OVCAR-8 = test system: OVCAR-8
HOP-92 = test system: HOP-92
NCI-H522 = test system: NCI-H522
SK-MEL-5 = test system: SK-MEL-5

C=C(C)C1CC/C(C)=C/CCC2(C)OC2CC/C(CO)=C\C1O (configuration not stated)
GI50 (SNB-75): 45.7 µM (inactive) | GI50 (KM12): > 100 µM (inactive) | GI50 (SF-539): 67 µM (inactive) | GI50 (TK-10): > 100 µM (inactive) | GI50 (HCT-116): > 100 µM (inactive) | GI50 (U-251): 98.4 µM (inactive) | GI50 (NCI/ADR-RES): > 100 µM (inactive) | GI50 (OVCAR-5): > 100 µM (inactive) | GI50 (HL-60): 59.2 µM (inactive) | GI50 (MDA-MB-231): > 100 µM (inactive) | GI50 (HOP-62): > 100 µM (inactive) | GI50 (M14): 49.3 µM (inactive) | GI50 (DU-145): > 100 µM (inactive) | GI50 (OVCAR-3): > 100 µM (inactive) | GI50 (T47D): > 100 µM (inactive) | GI50 (HT-29): > 100 µM (inactive) | GI50 (Hs-578T): 15.7 µM (inactive) | GI50 (SN12C): > 100 µM (inactive) | GI50 (MOLT-4): 43 µM (inactive) | GI50 (HCT-15): > 100 µM | GI50 (NCI-H23): > 100 µM (inactive) | GI50 (IGROV-1): 68.1 µM (inactive) | GI50 (SF-268): 66.7 µM (inactive) | GI50 (A498): > 100 µM (inactive) | GI50 (SK-MEL-2): > 100 µM (inactive) | GI50 (LOX IMVI): > 100 µM (inactive) | GI50 (RPMI-8226): 42.4 µM (inactive) | GI50 (HCC 2998): > 100 µM (inactive) | GI50 (A549): > 100 µM (inactive) | GI50 (MCF7): 91.4 µM (inactive) | GI50 (786-0): > 100 µM (inactive) | GI50 (SF-295): 40.9 µM (inactive) | GI50 (UACC-257): > 100 µM (inactive) | GI50 (SK-OV-3): > 100 µM (inactive) | GI50 (ACHN): > 100 µM (inactive) | GI50 (PC-3): 64.3 µM (inactive) | GI50 (SW-620): > 100 µM (inactive) | GI50 (NCI-H460): 42.7 µM (inactive) | GI50 (CAKI-1): > 100 µM (inactive) | GI50 (SNB-19): > 100 µM (inactive) | GI50 (COLO 205): 47.6 µM (inactive) | GI50 (UACC-62): 80 µM (inactive) | GI50 (Malme-3M): 52.1 µM (inactive) | GI50 (RXF 393): > 100 µM (inactive) | GI50 (OVCAR-4): > 100 µM (inactive) | GI50 (NCI-H226): > 100 µM (inactive) | GI50 (MDA-N): > 100 µM (inactive) | GI50 (K562): 42 µM (inactive) | GI50 (SR): 36.9 µM (inactive) | GI50 (EKVX): 91.4 µM (inactive) | GI50 (UO-31): > 100 µM (inactive) | GI50 (CCRF-CEM): 19.1 µM (inactive) | GI50 (SK-MEL-28): > 100 µM (inactive) | GI50 (MDA-MB-435): 60 µM (inactive) | GI50 (OVCAR-8): > 100 µM (inactive) | GI50 (HOP-92): 7.28 µM (inactive)

Cc1ccc2c(c1)CC1(Cc3cccc(C)c3C1=O)C2=O (configuration not stated)
GI50 (SNB-75): > 100 µM (inactive) | GI50 (SF-539): > 100 µM (inactive) | GI50 (TK-10): > 100 µM (inactive) | GI50 (HCT-116): 64 µM (inactive) | GI50 (U-251): > 100 µM (inactive) | GI50 (NCI/ADR-RES): > 100 µM (inactive) | GI50 (OVCAR-5): 37.3 µM (inactive) | GI50 (HL-60): 38.3 µM (inactive) | GI50 (MDA-MB-231): 19.4 µM (inactive) | GI50 (HOP-62): > 100 µM (inactive) | GI50 (M14): 64.4 µM (inactive) | GI50 (DU-145): > 100 µM (inactive) | GI50 (OVCAR-3): > 100 µM (inactive) | GI50 (T47D): > 10 µM (inactive) | GI50 (HT-29): 51.3 µM (inactive) | GI50 (Hs-578T): 96.8 µM (inactive) | GI50 (SN12C): > 100 µM (inactive) | GI50 (MOLT-4): 42.6 µM (inactive) | GI50 (HCT-15): > 100 µM | GI50 (NCI-H23): > 100 µM (inactive) | GI50 (IGROV-1): > 100 µM (inactive) | GI50 (SF-268): > 100 µM (inactive) | GI50 (A498): > 100 µM (inactive) | GI50 (LOX IMVI): > 10 µM (inactive) | GI50 (RPMI-8226): > 100 µM (inactive) | GI50 (HCC 2998): > 100 µM (inactive) | GI50 (A549): > 100 µM (inactive) | GI50 (MCF7): > 10 µM (inactive) | GI50 (786-0): > 100 µM (inactive) | GI50 (SF-295): > 100 µM (inactive) | GI50 (NCI-H522): 82.6 µM (inactive) | GI50 (UACC-257): > 100 µM (inactive) | GI50 (SK-OV-3): 88.5 µM (inactive) | GI50 (ACHN): > 100 µM (inactive) | GI50 (PC-3): > 100 µM (inactive) | GI50 (SK-MEL-5): 32.3 µM (inactive) | GI50 (SW-620): > 100 µM (inactive) | GI50 (NCI-H460): 69.7 µM (inactive) | GI50 (COLO 205): 85.3 µM (inactive) | GI50 (UACC-62): 48.4 µM (inactive) | GI50 (Malme-3M): 85.5 µM (inactive) | GI50 (RXF 393): > 100 µM (inactive) | GI50 (OVCAR-4): 55.8 µM (inactive) | GI50 (NCI-H226): > 100 µM (inactive) | GI50 (MDA-N): > 10 µM (inactive) | GI50 (K562): 39.4 µM (inactive) | GI50 (SR): 79.8 µM (inactive) | GI50 (EKVX): > 100 µM (inactive) | GI50 (UO-31): 20.9 µM (inactive) | GI50 (CCRF-CEM): 70.1 µM (inactive) | GI50 (SK-MEL-28): > 100 µM (inactive) | GI50 (MDA-MB-435): > 10 µM (inactive) | GI50 (OVCAR-8): > 100 µM (inactive) | GI50 (HOP-92): 50.7 µM (inactive)

CCCCCCCc1c(Cl)nc(Cl)nc1Cl
GI50 (SNB-75): 14.6 µM (inactive) | GI50 (KM12): 11.2 µM (inactive) | GI50 (SF-539): 9.82 µM (inactive) | GI50 (TK-10): 13.6 µM (inactive) | GI50 (HCT-116): 2.63 µM (inactive) | GI50 (U-251): 4.89 µM (inactive) | GI50 (NCI/ADR-RES): 4.26 µM (inactive) | GI50 (OVCAR-5): 8.85 µM (inactive) | GI50 (HL-60): 2.45 µM (inactive) | GI50 (MDA-MB-231): 3.52 µM (inactive) | GI50 (HOP-62): 18.6 µM (inactive) | GI50 (M14): 2.13 µM (inactive) | GI50 (DU-145): 14.3 µM (inactive) | GI50 (OVCAR-3): 6.35 µM (inactive) | GI50 (T47D): 12.2 µM (inactive) | GI50 (HT-29): 4.04 µM (inactive) | GI50 (Hs-578T): 6.28 µM (inactive) | GI50 (SN12C): 2.05 µM (inactive) | GI50 (MOLT-4): 1.15 µM (inactive) | GI50 (HCT-15): 3.66 µM | GI50 (NCI-H23): 3.72 µM (inactive) | GI50 (IGROV-1): 2.29 µM (inactive) | GI50 (SF-268): 4.66 µM (inactive) | GI50 (A498): 20.1 µM (inactive) | GI50 (LOX IMVI): 1.45 µM (inactive) | GI50 (RPMI-8226): 2.84 µM (inactive) | GI50 (HCC 2998): 5.81 µM (inactive) | GI50 (A549): 16.9 µM (inactive) | GI50 (MCF7): 10.4 µM (inactive) | GI50 (786-0): 3.56 µM (inactive) | GI50 (SF-295): 16.9 µM (inactive) | GI50 (NCI-H522): 1.74 µM (inactive) | GI50 (UACC-257): 10.4 µM (inactive) | GI50 (SK-OV-3): 7.43 µM (inactive) | GI50 (ACHN): 8.61 µM (inactive) | GI50 (PC-3): 8.28 µM (inactive) | GI50 (SK-MEL-5): 4.31 µM (inactive) | GI50 (SW-620): 2.68 µM (inactive) | GI50 (NCI-H460): 12.8 µM (inactive) | GI50 (CAKI-1): 2.38 µM (inactive) | GI50 (SNB-19): 11.2 µM (inactive) | GI50 (COLO 205): 5.25 µM (inactive) | GI50 (UACC-62): 5.82 µM (inactive) | GI50 (Malme-3M): 3.01 µM (inactive) | GI50 (RXF 393): 2.47 µM (inactive) | GI50 (OVCAR-4): 2.87 µM (inactive) | GI50 (NCI-H226): 2.04 µM (inactive) | GI50 (MDA-N): 3.75 µM (inactive) | GI50 (K562): 2.06 µM (inactive) | GI50 (SR): 0.604 µM (active) | GI50 (EKVX): 8.77 µM (inactive) | GI50 (UO-31): 5.82 µM (inactive) | GI50 (CCRF-CEM): 0.494 µM (active) | GI50 (SK-MEL-28): 7.11 µM (inactive) | GI50 (MDA-MB-435): 2.65 µM (inactive) | GI50 (OVCAR-8): 2.36 µM (inactive) | GI50 (HOP-92): 4.5 µM (inactive)
